Assay results taken from the supplement of paper PMC10307832.

How the values were obtained:
Assay in all cases: relative viability (nuclei count vs DMSO), 5 days (fraction); higher = more cells survive
IPA-3 + Olaparib = compound: C1=CC=C2C(=C1)C=CC(=C2SSC3=C(C=CC4=CC=CC=C43)O)O [IPA-3] + O=C(c1cc(Cc2n[nH]c(=O)c3ccccc23)ccc1F)N1CCN(C(=O)C2CC2)CC1 [Olaparib] (partner 8 µM)
In short: (§1)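 Medians of duplicate plates are given as relative viability. That measure is the nuclei count in treated wells divided by the count in vehicle wells. Counts were taken on 4× images of lung cancer cell lines in 1536-well plates, 5 days after pin-tool dosing the day after seeding with one drug alone or a fixed anchor-drug dose plus five library-drug doses (not always all listed) in √10 steps.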

Doramapimod + Alpelisib = compound: Cc1ccc(-n2nc(C(C)(C)C)cc2NC(=O)Nc2ccc(OCCN3CCOCC3)c3ccccc23)cc1 [Doramapimod] + Cc1nc(NC(=O)N2CCC[C@H]2C(N)=O)sc1-c1ccnc(C(C)(C)C(F)(F)F)c1 [Alpelisib] (partner 2 µM)
In short: as §1

Doramapimod + Dasatinib = compound: Cc1ccc(-n2nc(C(C)(C)C)cc2NC(=O)Nc2ccc(OCCN3CCOCC3)c3ccccc23)cc1 [Doramapimod] + Cc1nc(Nc2ncc(C(=O)Nc3c(C)cccc3Cl)s2)cc(N2CCN(CCO)CC2)n1 [Dasatinib] (partner 0.075 µM)
In short: as §1

IPA-3 + Linsitinib = compound: C1=CC=C2C(=C1)C=CC(=C2SSC3=C(C=CC4=CC=CC=C43)O)O [IPA-3] + C[C@]1(O)C[C@@H](c2nc(-c3ccc4ccc(-c5ccccc5)nc4c3)c3c(N)nccn32)C1 [Linsitinib] (partner 1 µM)
In short: as §1

| Cell Line | relative viability (IPA-3 + Olaparib; first compound 0.2 µM) | relative viability (IPA-3 + Olaparib; first compound 0.6325 µM) | relative viability (IPA-3 + Olaparib; first compound 2 µM) | relative viability (IPA-3 + Olaparib; first compound 6.325 µM) | relative viability (IPA-3 + Olaparib; first compound 20 µM) | relative viability (Doramapimod + Alpelisib; first compound 0.02 µM) | relative viability (Doramapimod + Alpelisib; first compound 0.06325 µM) | relative viability (Doramapimod + Alpelisib; first compound 0.2 µM) | relative viability (Doramapimod + Alpelisib; first compound 0.6325 µM) | relative viability (Doramapimod + Alpelisib; first compound 2 µM) | relative viability (Doramapimod + Dasatinib; first compound 0.02 µM) | relative viability (Doramapimod + Dasatinib; first compound 0.06325 µM) | relative viability (Doramapimod + Dasatinib; first compound 0.2 µM) | relative viability (Doramapimod + Dasatinib; first compound 0.6325 µM) | relative viability (Doramapimod + Dasatinib; first compound 2 µM) | relative viability (IPA-3 + Linsitinib; first compound 0.2 µM) | relative viability (IPA-3 + Linsitinib; first compound 0.6325 µM) | relative viability (IPA-3 + Linsitinib; first compound 2 µM) | relative viability (IPA-3 + Linsitinib; first compound 6.325 µM) | relative viability (IPA-3 + Linsitinib; first compound 20 µM) |
| --- | --- | --- | --- | --- | --- | --- | --- | --- | --- | --- | --- | --- | --- | --- | --- | --- | --- | --- | --- | --- |
| NCI-H2170 | 0.67 | 0.561 | 0.646 | 0.614 | 0.624 | 0.802 | 0.823 | 0.769 | 0.915 | 0.741 | 0.614 | 0.616 | 0.7 | 0.896 | 0.594 |  |  |  |  |  |
| HCC-366 | 0.532 | 0.345 | 0.321 | 0.34 | 0.277 | 0.403 | 0.325 | 0.38 | 0.39 | 0.299 | 0.605 | 0.549 | 0.548 | 0.548 | 0.458 | 0.996 | 0.627 | 0.723 | 0.756 | 0.696 |
| NCI-H2347 | 0.568 | 0.486 | 0.565 | 0.592 | 0.612 | 1.09 | 0.926 | 1.06 | 1.05 | 0.957 | 0.351 |  | 0.291 | 0.319 | 0.282 | 1.02 | 0.903 | 0.879 | 0.947 | 0.972 |
| COR-L 105 | 0.757 | 0.622 | 0.663 | 0.755 | 0.665 | 0.844 | 1.07 | 0.983 | 1 | 0.963 | 0.316 | 0.305 | 0.302 | 0.376 | 0.367 | 1.07 | 0.98 | 0.843 | 0.542 | 0.962 |
| 201T | 0.833 | 0.845 | 0.833 | 0.83 | 0.885 | 1.04 | 1 | 0.992 | 1.07 | 0.982 | 0.611 | 0.571 | 0.49 | 0.598 | 0.517 | 0.986 | 0.992 | 1.04 | 1.04 | 1.09 |
| NCI-H2126 | 1.05 | 0.886 | 0.877 | 0.875 | 1.06 | 0.743 | 0.733 | 0.733 | 0.742 | 0.662 | 0.59 | 0.661 | 0.577 | 0.544 | 0.497 | 0.74 | 0.659 | 0.7 | 0.768 | 0.812 |
| LC-2-ad | 0.811 | 0.738 | 0.699 | 0.751 | 0.683 | 0.943 | 0.995 | 0.884 | 0.888 | 0.835 | 0.464 | 0.514 | 0.638 | 0.561 | 0.391 | 0.885 | 0.845 | 0.86 | 0.795 | 0.86 |
| NCI-H2085 | 0.785 | 0.759 | 0.816 | 0.768 | 0.883 | 1.03 | 0.928 | 0.839 | 0.913 | 0.93 | 0.253 | 0.252 | 0.221 | 0.28 | 0.201 | 0.923 | 0.954 | 0.856 | 0.992 | 1.21 |
| NCI-H358 | 0.649 | 0.514 | 0.879 | 0.505 | 0.564 | 0.885 | 0.653 | 0.768 | 0.918 | 0.799 | 0.164 | 0.156 | 0.162 | 0.204 | 0.171 | 0.789 | 0.687 | 0.792 | 0.686 | 0.882 |
| H3255 | 0.605 | 0.555 | 0.565 | 0.518 | 0.562 | 0.785 | 0.659 | 0.705 | 0.83 | 0.621 | 0.296 | 0.56 | 0.414 | 0.314 | 0.351 | 1.09 | 0.874 | 0.932 | 0.963 | 1.11 |
| NCI-H2228 | 0.662 | 0.514 | 0.404 | 0.559 | 0.471 | 0.911 | 0.518 | 0.619 | 0.753 | 0.649 | 0.561 | 0.48 | 0.452 | 0.49 | 0.398 | 0.706 | 0.857 | 0.642 | 0.715 | 0.887 |
| CAL-12T | 0.749 | 0.693 | 0.72 | 0.668 | 0.678 | 1.1 | 1.05 | 1.21 | 1.41 | 1.09 | 0.521 | 0.371 | 0.306 | 0.44 | 0.348 | 0.93 | 0.715 | 0.914 | 0.79 | 0.935 |
| A-427 | 0.73 | 0.723 | 0.697 | 0.607 | 0.662 | 1.07 | 1.1 | 1.15 |  | 1.08 | 0.728 | 0.768 | 0.733 |  | 0.672 | 1.13 | 0.951 | 1.18 | 1.12 | 1.13 |
| HARA | 0.8 | 0.802 | 0.971 | 0.694 | 0.676 | 0.807 | 0.762 | 0.742 | 0.846 | 0.598 | 0.194 | 0.274 | 0.277 |  | 0.199 | 1.08 | 0.912 | 0.935 | 0.916 | 1.02 |
